Experimental data from patent US6750221B1 (BASF Aktiengesellschaft, priority 1999, dated 2004).
Where two headings read alike, the source gives them in different places.

Key:
male Long Evans rats = assay: Neuroprotective action: MCA occlusion (experimental cerebral stroke); assay type: in vivo, rat; conditions: 90 min after MCA occlusion, infarct volume 22 hours after occlusion
Description: The experiments were performed on male Long Evans rats. Under nitrous oxide-assisted halothane anesthesia, the middle cerebral artery (MCA) was severed and permanently ligated distally, as described in the literature. The resulting infarct volume was determined 22 hours after MCA occlusion.

hippocampal neurons = assay: Neuroprotective action: experimental brain trauma of the rat (lateral fluid percussion); assay type: in vivo; conditions: 20 + 20 mg/kg i.p., 15 + 120 min post trauma; 14 days after traumatization
From the text: The lateral fluid percussion method (McIntosh TK, Neuroscience 28, 233 244, 1989) was used in order to produce an experimental brain trauma in the rat which is suitable for the testing of potential neuroprotective substances. By means of this technique, controlled and consistent tissue damage was produced underneath the site of the impact, which included the neocortex, the hippocampus and the thalamus.
The right parietotemporal region of the skull was exposed in the anesthetized rat. The skull was trepanned through the parietal cortex (about 4 mm diameter), the dura being left intact. A Luer lock attachment was fixed to the skull using dental cement through the trepanation. After the dental cement had hardened, the rat was connected to the fluid percussion apparatus according to McIntosh. This consisted of a cylinder filled with 0.9% NaCl solution, one end of the cylinder being closed by a piston, while the other end was connected via a pressure transducer to a Luer lock attachment. […]
The rats were sacrificed 14 days after traumatization for removal of the brain. […] For the quantification of the neuronal damage, cell counts were carried out bilaterally in the rostral hippocampus; the proportion of intact cells in the dentate gyrus was determined on the traumatized (right) and the (left) opposite side. […]

h5-HT5 receptor [1] = molecular target: T1, h5-HT5 receptor (Homo sapiens, UniProt P47898); assay: [3H]-5-CT binding competition on h5-HT5 membranes
T1 construct: expressed in transfected cells; host or cells: HEK293 cells (CHO cells obtained analogously), pcDNA3 plasmid, neomycin selection; membranes prepared
T1 sequence (P47898 whole entry): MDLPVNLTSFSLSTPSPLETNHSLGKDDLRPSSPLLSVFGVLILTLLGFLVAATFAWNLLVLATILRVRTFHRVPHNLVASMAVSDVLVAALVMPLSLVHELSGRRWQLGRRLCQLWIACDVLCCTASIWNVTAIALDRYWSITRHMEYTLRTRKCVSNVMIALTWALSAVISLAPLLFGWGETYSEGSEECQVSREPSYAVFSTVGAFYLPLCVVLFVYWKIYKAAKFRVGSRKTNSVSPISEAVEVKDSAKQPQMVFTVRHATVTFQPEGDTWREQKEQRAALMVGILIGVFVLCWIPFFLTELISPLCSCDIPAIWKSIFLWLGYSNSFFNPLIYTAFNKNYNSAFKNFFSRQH
Description: Membranes obtained according to Example 2 (200 μl) were incubated in the presence of 2 nM [^3H]-5-CT in a total volume of 600 μl in buffer B with increasing concentrations of selected compounds. After an incubation time of 75 min at 30° C., the samples were filtered at 4° C. through GF/B filters embedded in 0.3% polyethyleneimide using buffer B. The filters were washed with 9 ml of buffer B. The radioactivity retained on the filters was determined as in Reference Example 3.
According to Reference Example 4, the binding affinities of serotoninergic compounds were determined by means of [^3H]-5-CT binding competition.

h5-HT5 receptor [2] = molecular target: T1, h5-HT5 receptor; assay: Saturation binding of [3H]-5-CT to membranes of h5-HT5 receptor-expressing cells; conditions: 30° C., 90 min, read-out: dissociation constant Kd
Description: The gene coding for the human 5-HT5 receptor was isolated from human tissues in a known manner by means of 3′-5′-RT-PCR (RACE system, Boehringer Mannheim). The gene sequence was then inserted into a plasmid carrying the neomycin resistance gene (pcDNA3; Invitrogen, Germany) and amplified in E. coli according to the manufacturer's instructions. A preparation of the resulting plasmid was mixed with Lipofectamin® (Gibco Life-Sciences, Germany), and HEK293 cells were incubated with a thin layer of this transfection mixture in petri dishes (2.5 cm). The transfection mixture was then replaced by neomycin-containing culture medium. […]
The methodology is essentially known (Ress S. et al., FEBS Letters 335:242-246 (1994)). […] The filters were washed at 4° C. with 9 ml of buffer B. The radioactivity retained on the filters was measured by means of liquid scintillation counting, 5 ml of Ultima-Gold (Packard) being used.
The saturation parameters of the [^3H]-5-CT binding was determined both by nonlinear regression analysis and from linear plots using the SigmaPlot software (Jandel Scientific, Germany). Competition curves were set up in which the radioactive binding is expressed as a percentage proportion of the total binding. Half maximal inhibition constants IC50 and Hill-coefficients (nH) were determined by means of nonlinear regression analysis. […]

[3] = 2 + 1 mg/kg + mg/kg/h i.v. bolus then infusion

Compound	Infarct volume, % of the control [mean value ± SD] (male Long Evans rats; [3])	Quotient m ± sm of neuron count of the trauma side to the contralateral side (hippocampus) (hippocampal neurons)	Ki (h5-HT5 receptor [1]) [µM]	other results
CCN1CCc2sc3ncn(CCN4CCN(c5cccc6ccccc56)CC4)c(=O)c3c2C1 [Compound B, 3,4,5,6,7,8-Hexahydro-6-ethyl-3-[2-(4-(1-naphthyl)piperazin-1-yl)ethyl]pyrido[3′,4′:4,5]thieno[2,3-d]pyrimidin-4-one]	66 ± 19 % of the control	0.64 ± 0.03	0.124	
CCCN(CCC)C1CCc2cccc(O)c2C1 (stereo not drawn) [R(+)-8-OH-DPAT, 8-hydroxy-2-(di-n-propylamino)tetralin, reference compound]	72 ± 32 % of the control			
COc1ccc2cccc(N3CCN(CCn4cnc5sc6c(c5c4=O)CCN(C)C6)CC3)c2c1 [Compound C]		0.56 ± 0.05	0.237	Infarct volume, % of the control (male Long Evans rats; 1 + 0.5 mg/kg + mg/kg/h i.v. bolus then infusion): 67 % of the control
NCCc1c[nH]c2ccc(C(N)=O)cc12 [Compound 5-CT, 5-carboxamidotryptamine, reference compound]				Kd (h5-HT5 receptor [2]): 0.00057 µM; Ki (h5-HT5 receptor [1]; 2 nM [3H]-5-CT, 75 min at 30° C., Ki=IC50/(1+C/Kd)): 0.00144 µM
CN1CCc2c(sc3ncn(CCN4CCN(c5cccc(C(F)(F)F)c5)CC4)c(=O)c23)C1 [Compound A, 3,4,5,6,7,8-Hexahydro-7-methyl-3-[2-(4-(3-trifluoromethyl-phenyl)piperazin-1-yl)ethyl]pyrido[4′,3′:4,5]thieno[2,3-d]-pyrimidin-4-one]			0.661	Infarct volume, % of the control [mean value ± SD] (male Long Evans rats; 4 + 2 mg/kg + mg/kg/h i.v. bolus then infusion): 62 ± 18 % of the control
